Experimental data taken from patent US20140377340A1, “HLA-DR BINDING PEPTIDES AND THEIR USES” (priority 2007, published 2014).

Legend:
purified HLA DRB1*0101 = target: T1, purified HLA DRB1*0101 (Homo sapiens, UniProt P01903+P01911, A100R/D57E/F55L/F60I/F76Y/I96L/L162R/M171V/P40L/Q125E/R42F/V115G/Y59C); assay: HLA-DR radioligand binding inhibition assay, DRB1*0101; settings: IC50 nM purified HLA DRB1 *0101, purified HLA DRB1*0101
T1 construct: purified from EBV transformed homozygous cell lines or single MHC allele transfected 721.221, C1R, or fibroblast lines; made in house
Experimental: (§1) Instead, wells of an opaque white 96-well Optiplate (Packard) are coated with 3 μg (100 μl@ 30 μg/ml) of HLA-specific antibody (Ab) that “capture” complexes of radiolabeled MHC and unlabeled peptide transferred from the molecular binding assay plate in 100 μl of 0.05% NP40/PBS. After a 3-hour incubation period, the supernatant is decanted and scintillation fluid (Microscint 20) added. Captured complexes are then measured on a microplate scintillation and luminescence counter (TopCount NXTTM; Packard).
(§2) HLA-DR purification. Fifteen distinct HLA-DR molecules were used in quantitative assays to measure the binding of peptides to solubilized HLA-DR molecules. […] Briefly, columns of inactivated Sepharose CL4B and Protein A Sepharose were used as pre-columns. HLA-DR molecules were captured by passage of lysates over LB3.1 monoclonal antibody (anti-HLA-DRA) columns. Antibody columns were washed with 10 mM Tris-HCL, pH8.0 with 1% (v/v) NP-40, followed by PBS containing 0.4% (w/v) n-octylglucoside.
(§3) Briefly, 1-10 nM of radiolabeled peptide was co-incubated for 2 days at either room temperature or 37° C. with 1 μM to 1 nM purified HLA-DR molecules in the presence of a cocktail of protease inhibitors. Assays were performed at various pH conditions, ranging from pH 4 to pH 7. […] After incubation, the percentage of HLA-DR-bound radioactivity is determined by capturing HLA-DR/peptide complexes on Optiplates (Packard Instruments, Meriden, Conn.) coated with the LB3.1 antibody and determining bound counts per minute using the TopCount microscintillation counter (Packard Instruments).

purified HLA DRB1*1302 = target: T2, purified HLA DRB1*1302 (Homo sapiens, UniProt P01903+P01911, A100E/A169T/K41T/L162R/M171V/P40S/Q125H/Q178H/Q39Y/Q99D/R42S/S66N/T262R/V115G/W38E/Y61H); assay: HLA-DR radioligand binding inhibition assay, DRB1*1302
T2 construct: purified from EBV transformed homozygous cell lines or single MHC allele transfected 721.221, C1R, or fibroblast lines; made in house
Experimental: as §1, §2, §3

purified HLA DRB1*0405 = target: T3, purified HLA DRB1*0405 (Homo sapiens, UniProt P01903+P01911, A100R/A169T/D86S/F76Y/I96L/K127E/L162R/M171V/N62H/P40V/Q125Y/R42H/S133A/S149N/S66Y/V115G/V209L/W38E); assay: HLA-DR radioligand binding inhibition assay, DRB1*0405; settings: IC50 nM purified HLA DRB1 *0405, purified HLA DRB1*0405
T3 construct: purified from EBV transformed homozygous cell lines or single MHC allele transfected 721.221, C1R, or fibroblast lines; made in house
Experimental: as §1, §2, §3

purified HLA DRB1*0701 = target: T4, purified HLA DRB1*0701 (Homo sapiens, UniProt P01903+P01911, A100R/A102G/A103Q/D57E/D86V/E43K/F76Y/K127E/L162R/M171V/P40G/Q125H/Q99D/R33Q/R42Y/R54Q/S133A/S66F/T210M/V115G/Y107V/Y59L/Y89S); assay: HLA-DR radioligand binding inhibition assay, DRB1*0701; settings: IC50 nM purified HLA DRB1 *0701, purified HLA DRB1*0701
T4 construct: purified from EBV transformed homozygous cell lines or single MHC allele transfected 721.221, C1R, or fibroblast lines; made in house
Experimental: as §1, §2, §3

purified HLA DRB1*1101 = target: T5, purified HLA DRB1*1101 (Homo sapiens, UniProt P01903+P01911, A100R/A169T/A87E/I96F/K41T/L162R/M171V/P40S/Q125H/Q178H/Q39Y/Q99D/R42S/S66Y/T262R/V115G/W38E); assay: HLA-DR radioligand binding inhibition assay, DRB1*1101; settings: IC50 nM purified HLA DRB1 *1101, purified HLA DRB1*1101
T5 construct: purified from EBV transformed homozygous cell lines or single MHC allele transfected 721.221, C1R, or fibroblast lines; made in house
Experimental: as §1, §2, §3

purified HLA DRB5*0101 = target: T6, purified HLA DRB5*0101 (Homo sapiens, UniProt P01903+Q30154); assay: HLA-DR radioligand binding inhibition assay, DRB5*0101; settings: IC50 nM purified HLA DRB5 *0101, purified HLA DRB5*0101
T6 construct: purified from EBV transformed homozygous cell lines or single MHC allele transfected 721.221, C1R, or fibroblast lines; made in house
Experimental: as §1, §2, §3

purified HLA DRB1*0401 = target: T7, purified HLA DRB1*0401 (Homo sapiens, UniProt P01903+P01911, A100K/A169T/F76Y/I96L/K127E/L162R/M171V/N62H/P40V/Q125Y/R42H/S133A/S149N/S66Y/V115G/V209L/W38E); assay: HLA-DR radioligand binding inhibition assay, DRB1*0401; settings: IC50 nM purified HLA DRB1 *0401, purified HLA DRB1*0401
T7 construct: purified from EBV transformed homozygous cell lines or single MHC allele transfected 721.221, C1R, or fibroblast lines; made in house
Experimental: as §1, §2, §3

purified HLA DRB1*1501 = target: T8, purified HLA DRB1*1501 (Homo sapiens, UniProt P01903+P01911); assay: HLA-DR radioligand binding inhibition assay, DRB1*1501
T8 construct: purified from EBV transformed homozygous cell lines or single MHC allele transfected 721.221, C1R, or fibroblast lines; made in house
Experimental: as §1, §2, §3

T5 sequence (P01903 26-254, other chains not shown): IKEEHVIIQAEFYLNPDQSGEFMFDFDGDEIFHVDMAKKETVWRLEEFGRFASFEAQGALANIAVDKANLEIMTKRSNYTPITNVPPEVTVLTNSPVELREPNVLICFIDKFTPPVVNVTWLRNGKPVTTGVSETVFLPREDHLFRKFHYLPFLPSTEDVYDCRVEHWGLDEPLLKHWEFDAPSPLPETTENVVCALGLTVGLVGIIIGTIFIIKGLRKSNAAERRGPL

Row | Compound | IC50 (purified HLA DRB1*0101) | IC50 (purified HLA DRB1*1302) | IC50 (purified HLA DRB1*0405) | IC50 (purified HLA DRB1*0701) | IC50 (purified HLA DRB1*1101) | IC50 (purified HLA DRB5*0101) | IC50 (purified HLA DRB1*0401) | IC50 (purified HLA DRB1*1501)
1 | CC[C@H](C)[C@H](NC(=O)[C@@H](NC(=O)[C@@H]1CCCN1C(=O)[C@H](C)NC(=O)[C@H](CC(=O)O)NC(=O)[C@@H]1CCCN1C(=O)CNC(=O)[C@H](Cc1ccc(O)cc1)NC(=O)[C@H](CC(C)C)NC(=O)[C@@H](NC(=O)[C@H](CC(N)=O)NC(=O)[C@@H](N)CC(C)C)C(C)C)[C@@H](C)O)C(=O)N[C@@H](CO)C(=O)N1CCC[C@H]1C(=O)N[C@@H](CC(C)C)C(=O)O [Peptide 9019.0120] | – | – | > 20000 nM | 410 nM | > 20000 nM | > 20000 nM | – | –
2 | CSCC[C@H](NC(=O)[C@H](C)NC(=O)[C@H](CC(C)C)NC(=O)[C@@H]1CCCN1C(=O)[C@H](Cc1ccccc1)NC(=O)[C@@H](NC(=O)[C@H](CCC(=O)O)NC(=O)[C@H](CCC(=O)O)NC(=O)[C@@H](N)CCC(=O)O)C(C)C)C(=O)N[C@@H](CC(N)=O)C(=O)N[C@@H](Cc1ccc(O)cc1)C(=O)N[C@@H](CC(C)C)C(=O)N[C@@H](CC(=O)O)C(=O)N[C@@H](CCCNC(=N)N)C(=O)N[C@@H](Cc1ccccc1)C(=O)O [Peptide 9019.0152] | 850 nM | 26 nM | – | – | – | – | – | 77 nM
3 | CC[C@H](C)[C@H](NC(=O)[C@@H](NC(=O)[C@H](CCC(=O)O)NC(=O)[C@H](CCCCN)NC(=O)[C@H](CCSC)NC(=O)[C@H](CCCCN)NC(=O)[C@H](CO)NC(=O)[C@H](C)NC(=O)[C@@H](NC(=O)[C@H](Cc1ccccc1)NC(=O)[C@H](CCSC)NC(=O)[C@H](CS)NC(=O)[C@@H](N)[C@@H](C)O)C(C)C)[C@@H](C)O)C(=O)N1CCC[C@H]1C(=O)N[C@@H](CC(C)C)C(=O)O [Peptide 9019.0157] | – | – | – | 17 nM | 61 nM | 36 nM | – | –

Results, then the compound that gave them:

Row | IC50 (purified HLA DRB1*0101) | IC50 (purified HLA DRB1*1302) | IC50 (purified HLA DRB1*0405) | IC50 (purified HLA DRB1*0701) | IC50 (purified HLA DRB1*1101) | IC50 (purified HLA DRB5*0101) | IC50 (purified HLA DRB1*0401) | IC50 (purified HLA DRB1*1501) | Compound
4 | 110 nM | 3230 nM | 5800 nM | – | – | – | – | – | CSCC[C@H](NC(=O)CNC(=O)[C@H](CC(C)C)NC(=O)[C@H](CC(=O)O)NC(=O)CNC(=O)[C@@H](N)CC(=O)O)C(=O)NCC(=O)N[C@@H](C)C(=O)N[C@@H](C)C(=O)N[C@@H](CCCCN)C(=O)NCC(=O)N[C@@H](CC(C)C)C(=O)N[C@@H](CCC(N)=O)C(=O)N[C@@H](CO)C(=O)N[C@@H](CC(C)C)C(=O)O [Peptide 9019.0097]
5 | 2430 nM | 125 nM | 5990 nM | – | – | – | 295 nM | – | CC[C@H](C)[C@H](NC(=O)[C@@H](NC(=O)[C@@H]1CCCN1C(=O)[C@H](C)N)[C@@H](C)O)C(=O)N[C@@H](CO)C(=O)N1CCC[C@H]1C(=O)N[C@@H](CC(C)C)C(=O)N[C@@H](CC(N)=O)C(=O)N[C@H](C(=O)N[C@@H](CO)C(=O)N[C@@H](Cc1ccc(O)cc1)C(=O)N[C@@H](CCCNC(=N)N)C(=O)N[C@@H](CO)C(=O)NCC(=O)N[C@@H](CCC(=O)O)C(=O)O)[C@@H](C)O [Peptide 9019.0121]
6 | 130 nM | 550 nM | > 20000 nM | 220 nM | – | – | > 20000 nM | – | CC[C@H](C)[C@H](NC(=O)[C@@H](NC(=O)[C@H](CCC(=O)O)NC(=O)[C@H](CCCCN)NC(=O)[C@H](CCSC)NC(=O)[C@H](CCCCN)NC(=O)[C@H](CO)NC(=O)[C@H](C)N)[C@@H](C)O)C(=O)N1CCC[C@H]1C(=O)N[C@@H](CC(C)C)C(=O)N[C@H](C(=O)N[C@@H](C)C(=O)N[C@@H](CCC(=O)O)C(=O)N[C@@H](CCCCN)C(=O)N[C@@H](CC(C)C)C(=O)O)[C@@H](C)O [Peptide 9019.0158]
7 | – | – | 6480 nM | 3100 nM | 16800 nM | – | – | – | CC(C)C[C@H](NC(=O)CNC(=O)[C@H](CC(C)C)NC(=O)[C@H](Cc1c[nH]cn1)NC(=O)[C@H](Cc1c[nH]cn1)NC(=O)[C@H](CCCCN)NC(=O)CN)C(=O)N[C@@H](CCC(=O)O)C(=O)N[C@@H](CCC(=O)O)C(=O)N1CCC[C@H]1C(=O)N[C@@H](CCCCN)C(=O)N[C@@H](CCCCN)C(=O)N[C@@H](CC(C)C)C(=O)N[C@@H](CCCNC(=N)N)C(=O)N1CCC[C@H]1C(=O)O [Peptide 9019.0187]
